# Results published in paper PMC9597602, “Metal Complexes as Antifungals? From a Crowd-Sourced Compound Library to the First In Vivo Experiments” (JACS Au, 2022).
# Several values for one entry are separate records, joined by “and”; a condition that tells them apart may be missing. Equal values may be shown once. Read-outs that look alike come from different tables or passages of the source. Starred links: 1 amine or outer side, 2 acyl side, 3 side chain; linkers in the order of their positions; H or OH if unused. Positions of bridges follow the written chain, without caps; N, C: chain ends. Non-standard residues stand in square brackets, D forms with d. Residues, ends and D or L forms follow the SMILES beside them. *: point of attachment. hTyr(3S-OH,4S-OH,3'-OSO3H) = N[C@H](C(=O)O)[C@H](O)[C@@H](O)c1ccc(O)c(OS(=O)(=O)O)c1; Orn(4R-OH,5R-OH) = O=C([C@H](C[C@@H](O)[C@@H](O)N[*:3])N[*:1])[*:2]; Pro(3S-OH,4S-Me) = C[C@H]1CN[C@H](C(=O)O)[C@H]1O; X1 = CCCCCOc1ccc(-c2cc(-c3ccc(C(=O)*)cc3)no2)cc1; Gln(3R-OH) = NC(=O)C[C@@H](O)[C@H](N)C(=O)O; Hyp = O=C(O)[C@@H]1C[C@@H](O)CN1
# What was measured:
# [1] = tested on: Candida albicans ATCC 90028 NCCLS11; experiment: Antifungal MIC assay; type: cell-based
# In short: (§1)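 MIC is the lowest concentration at which growth fell by at least 80% (optically clear to slightly hazy, CLSI M27 score 0–1). Cells in YNB at a final 2.5 × 10^3 CFU/mL were incubated with compound for 36 h at 35 °C, unshaken.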
# [2] = tested on: Candida tropicalis ATCC 750; experiment: Antifungal MIC assay, extended panel; type: cell-based; settings: Candida tropicalis, ATCC750, read-out: MIC* Candida tropicalis ATCC 750
# [3] = tested on: Candida glabrata ATCC 90030 NCCLS 84; experiment: Antifungal MIC assay, extended panel; type: cell-based; settings: Nakaseomyces glabratus, ATCC90030, read-out: MIC* Candida glabrata ATCC 90030
# [4] = tested on: Candida auris CBS12373 KCTC 17810; experiment: Antifungal MIC assay, extended panel; type: cell-based; settings: read-out: MIC* Candida auris CBS12373
# Experimental: (§2) For the fungal assays, both fungi (yeast) strains were cultured for 3 days on Yeast Extract-Peptone Dextrose (YPD; Becton Dickinson 242720) agar at 30 °C. A yeast suspension of 1 × 10^6 to 5 × 10^6 CFU/mL (as determined by OD530) was prepared from five colonies from the agar plates, subsequently diluted with Yeast Nitrogen Base media (YNB; Becton Dickinson 233520), and added to each well of the compound containing plates (384-well plates, NBS; Corning CLS3640), giving a final cell density of 2.5 × 10^3 CFU/mL and a total volume of 50 μL. Plates were covered and incubated at 35 °C for 36 h without shaking. […] MIC […] Reference Method for Broth Dilution Antifungal Susceptibility Testing of Yeasts. […] Fluconazole (Sigma F8929) was used as internal control on each plate for all strains. All compounds were tested as two technical replicates in two to four independent biological assays, n = 4–8 final data.
# [5] = tested on: Candida auris CBS10913 JCM 15448; experiment: Antifungal MIC assay, extended panel; type: cell-based; settings: read-out: MIC* Candida auris CBS10913
# Experimental: as §2
# [6] = tested on: Cryptococcus deuterogattii CBS7750 VGII; Serotype B; experiment: Antifungal MIC assay, extended panel; type: cell-based; settings: Cryptococcus deuterogattii, CBS7750, read-out: MIC* Cryptococcus deuterogattii CBS7750
# [7] = tested on: Cryptococcus deuterogattii ATCC 32609 VGII; experiment: Antifungal MIC assay, extended panel; type: cell-based; settings: Cryptococcus deuterogattii, ATCC32609, read-out: MIC* Cryptococcus deuterogattii ATCC 32609
# [8] = tested on: Cryptococcus neoformans H99 ATCC 208821 type strain; experiment: Antifungal MIC assay; type: cell-based
# In short: as §1
# [9] = tested on: Candida glabrata ATCC 90030 NCCLS 84; experiment: Antifungal MIC assay, extended panel; type: cell-based; settings: extended panel, second batch; ≥80 or ≥50% inhibition
# Experimental: (§3) For the fungal assays, both fungi (yeast) strains were cultured for 3 days on Yeast Extract-Peptone Dextrose (YPD; Becton Dickinson 242720) agar at 30 °C. A yeast suspension of 1 × 10^6 to 5 × 10^6 CFU/mL (as determined by OD530) was prepared from five colonies from the agar plates, subsequently diluted with Yeast Nitrogen Base media (YNB; Becton Dickinson 233520), and added to each well of the compound containing plates (384-well plates, NBS; Corning CLS3640), giving a final cell density of 2.5 × 10^3 CFU/mL and a total volume of 50 μL. Plates were covered and incubated at 35 °C for 36 h without shaking. […] MIC values were recorded as the lowest concentration at which the growth was inhibited by ≥80%, equivalent to ″optically clear-to-slightly hazy″ or MIC score of 0–1 as per CLSI guidelines M27 Reference Method for Broth Dilution Antifungal Susceptibility Testing of Yeasts. […] Fluconazole (Sigma F8929) was used as internal control on each plate for all strains. All compounds were tested as two technical replicates in two to four independent biological assays, n = 4–8 final data.
# [10] = tested on: Cryptococcus deuterogattii ATCC 32609 VGII; experiment: Antifungal MIC assay, extended panel; type: cell-based; settings: extended panel, second batch; ≥80 or ≥50% inhibition
# Experimental: as §3
# [11] = tested on: Candida tropicalis ATCC 750; experiment: Antifungal MIC assay, extended panel; type: cell-based; settings: extended panel, second batch; ≥80 or ≥50% inhibition
# Experimental: as §3
# [12] = tested on: Cryptococcus deuterogattii CBS7750 VGII; Serotype B; experiment: Antifungal MIC assay, extended panel; type: cell-based; settings: extended panel, second batch; ≥80 or ≥50% inhibition
# Experimental: as §3
# human red blood cells = type: cell-based
# Experimental: Human whole blood (Australian Red Cross) was washed three times with 3 vol of 0.9% NaCl and resuspended in a concentration of 0.5 × 10^8 cells/mL, determined by a manual cell count in a Neubauer hemocytometer. […] After incubation, the plates were centrifuged at 1000g for 10 min to pellet cells and debris; 25 μL of the supernatant was then transferred to reading plates (384-well, polystyrene plated (PS), Corning CLS3680), with hemolysis determined by measuring the supernatant absorbance at […] (OD405) using cells without inhibitors as negative control and cells with 1% Triton X-100 (Sigma T8787) as positive control. […] Melittin (Sigma M2272) was used as internal control on each plate.
# [13] = tested on: Pseudomonas aeruginosa ATCC 27853 QC control strain; experiment: CO-ADD antibacterial MIC assay; type: cell-based; settings: initial CO-ADD dose-response screening; ≥80% growth inhibition
# Experimental: (§4) For the all the bacterial assays, each bacterial strain was cultured in cation-adjusted Mueller Hinton broth (CAMHB; Bacto Laboratories 212322) at 37 °C overnight. A sample of each culture was then diluted 40-fold in fresh CAMHB and incubated at 37 °C for 1.5–3 h. The resultant mid-log phase cultures were diluted with CAMHB (CFU/mL measured by OD600) and then added to each well of the compound-containing plates (384-well non-binding surface (NBS) plates; Corning CLS3640), giving a cell density of 5 × 10^5 CFU/mL and a total volume of 50 μL. Plates were covered and incubated at 37 °C for 18 h without shaking. Inhibition of bacterial growth was determined by measuring the absorbance at 600 nm (OD600) using media only as negative control and bacteria without inhibitors as positive control. MIC values were determined as the lowest concentration at which the growth was inhibited by ≥80% (equivalent to no visible growth by the eye). Colistin sulfate (Sigma C4461) and vancomycin HCl (Sigma 861987) were used as internal controls on each plate for Gram-negative and Gram-positive bacteria, respectively. All compounds were tested as two technical replicates in two independent biological assays, n = 4 final data.
# [14] = tested on: Escherichia coli ATCC 25922 FDA control strain; experiment: CO-ADD antibacterial MIC assay; type: cell-based; settings: initial CO-ADD dose-response screening; ≥80% growth inhibition
# Experimental: as §4
# [15] = tested on: Acinetobacter baumannii ATCC 19606 type strain; experiment: CO-ADD antibacterial MIC assay; type: cell-based; settings: initial CO-ADD dose-response screening; ≥80% growth inhibition
# Experimental: as §4
# [16] = tested on: methicillin-resistant Staphylococcus aureus ATCC 43300; experiment: CO-ADD antibacterial MIC assay; type: cell-based; settings: initial CO-ADD dose-response screening; ≥80% growth inhibition
# Experimental: as §4
# [17] = tested on: HEK-293 human embryonic kidney cells ATCC CRL-1573
# Experimental: The cells were incubated together with the compounds for 20 h at 37 °C in 5% CO2. […] Tamoxifen (Sigma T5648) was used as internal control on each plate.
# [18] = initial CO-ADD dose-response screening, ≥80% growth inhibition
# [19] = extended panel, second batch, ≥80 or ≥50% inhibition
smiles,measurement,setting,value
"CCCCCOc1ccc(-c2cc(-c3ccc(C(=O)N[C@H]4C[C@@H](O)[C@@H](O)NC(=O)[C@@H]5[C@@H](O)[C@@H](C)CN5C(=O)[C@H]([C@H](O)CC(N)=O)NC(=O)[C@H]([C@H](O)[C@@H](O)c5ccc(O)c(OS(=O)(=O)O)c5)NC(=O)[C@@H]5C[C@@H](O)CN5C(=O)[C@H]([C@@H](C)O)NC4=O)cc3)no2)cc1 [Micafungin, reference compound] (X1-[Orn(4R-OH,5R-OH)]T[Hyp][hTyr(3S-OH,4S-OH,3'-OSO3H)][Gln(3R-OH)][Pro(3S-OH,4S-Me)]; lactam 1-C)",MIC,"[1]; Candida albicans, ATCC90028, read-out: MIC* Candida albicans ATCC 90028",≤ 0.0005 µg/mL and ≤ 0.0007 µM
same,MIC,[2],0.008 µg/mL to 0.063 µg/mL and 0.009 µM to 0.07 µM
same,MIC,[3],4 µg/mL to 32 µg/mL and 4.45 µM to 35.7 µM
same,MIC,[4]; Candidozyma auris,2 µg/mL and 2.23 µM
same,MIC,[5]; Candidozyma auris,≤ 0.001 µg/mL and ≤ 0.0014 µM
same,MIC,[6],0.06 µg/mL to 0.125 µg/mL and 0.07 µM to 0.139 µM
same,MIC,[7],0.016 µg/mL to 0.125 µg/mL and 0.017 µM to 0.139 µM
same,MIC,"[8]; Cryptococcus neoformans, ATCC208821, read-out: MIC* Cryptococcus neoformans ATCC 208821",0.015 µg/mL to 0.063 µg/mL and 0.017 µM to 0.07 µM
C1=CCCC=CCC1.[Cl][Pd][Cl] [Pd1],MIC,"[1]; extended panel, second batch, ≥80 or ≥50% inhibition, read-out: MIC* Candida albicans ATCC 90028",3.12 µM
same,MIC Ca,[1]; [18],1.25 µM
same,MIC,[9],3.12 µM
same,MIC Cryptococcus deuterogattii ATCC 32609,[10],1.56 to 3.12 µM
same,MIC,[11],6.25 µM
same,MIC,[12],≤0.78 µM
same,RBC HC10,"human red blood cells; initial CO-ADD screening, 1 h, 10% hemolysis",>20 µM
same,RBC HC10,"human red blood cells; ranges obtained upon retesting, new batch",10 µM
same,MIC,[4]; [19],≤0.78 µM
same,MIC,[5]; [19],≤0.78 µM
same,MIC Pa,[13],>20 µM
same,MIC Ec,[14],>20 µM
same,MIC Ab,[15],>20 µM
same,MIC MRSA (Sa),[16],>20 µM
same,CC50,"[17]; read-out: HEK293 CC50, ranges obtained upon retesting, new batch",> 100 µM
same,CC50,"[17]; read-out: HEK CC50, initial CO-ADD screening, 20 h",> 20 µM
same,cytotoxicity: none up to stated concentration,[17]; retest,> 100 µM
same,MIC,"[8]; extended panel, second batch, ≥80 or ≥50% inhibition, read-out: MIC* Cryptococcus neoformans ATCC 208821",≤0.78 µM
same,MIC Cn,[8]; [18],0.63 µM
